Data from the supplement of paper PMC10307832.

Compound: CN1CCC(CC1)OC2=CC(=C(C=C2)NC3=NC=C4C(=N3)N(C(=O)N4C)C5CCCC5)OC [AZ3146] + Nc1ncn([C@H]2C[C@H](O)[C@@H](CO)O2)c(=O)n1 [Decitabine] (partner 2 µM)
Experiment: relative viability (nuclei count vs DMSO), 5 days (fraction); higher = more cells survive
Details: first compound 8 µM
How it was run: (§1)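 Lung cancer cell lines were seeded in 1536-well plates and dosed by pin tool the next day, with either a single drug or a fixed anchor-drug dose combined with five library-drug doses (not always all listed) spaced in √10 steps. Five days later, one step fixed the cells and stained their nuclei (final 0.05% Triton X-100, 1% formaldehyde, 1 ug/ml Hoechst), and nuclei were counted on 4× images. Relative viability is the nuclei count in treated wells divided by the count in vehicle wells, and each value is the median of duplicate plates.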

Cell Line	relative viability
EKVX	0.286
NCI-H1755	0.839
NCI-H2023	0.13
HCC-78	0.728
SK-LU-1	0.692
PC-3 [JPC-3]	0.85
LOU-NH91	0.783
NCI-H647	0.329
NCI-H23	0.425
EPLC-272H	0.418
NCI-H2126	0.572
ChaGo-K-1	0.501
HCC-44	0.958
NCI-H1734	0.484
NCI-H650	0.323
LK-2	0.337
NCI-H2342	0.714
NCI-H1944	0.468
COR-L23	0.369
A549	0.205
SW 900	0.558
NCI-H1648	0.429
NCI-H520	0.359
NCI-H661	0.448
COR-L 105	0.549
NCI-H1650	0.367
NCI-H2009	0.328
SK-MES-1	0.344
SW 1573	0.162

Compound: CN1CCC(CC1)OC2=CC(=C(C=C2)NC3=NC=C4C(=N3)N(C(=O)N4C)C5CCCC5)OC [AZ3146] + CS(=O)(=O)N1CCN(Cc2cc3nc(-c4cccc5[nH]ncc45)nc(N4CCOCC4)c3s2)CC1 [Pictilisib] (partner 1 µM)
Experiment: as above
Details: first compound 0.08 µM
How it was run: as §1

Cell Line	relative viability
PC-14	0.68
NCI-H1666	0.307
EKVX	0.417
NCI-H1755	0.421
NCI-H2023	0.241
SK-LU-1	0.571
PC-3 [JPC-3]	0.669
LOU-NH91	0.475
NCI-H647	0.485
NCI-H23	0.453
EPLC-272H	0.274
NCI-H2126	0.41
ChaGo-K-1	0.746
HCC-44	0.543
NCI-H1734	0.501
NCI-H650	0.661
LK-2	0.49

Cell Line	relative viability
NCI-H2228	0.412
Calu-6	0.871
COR-L23	0.643
EBC-1	0.366
A549	0.475
NCI-H1299	0.786
CAL-12T	0.334
NCI-H520	0.255
IA-LM	0.306
NCI-H661	0.489
COR-L 105	0.38
NCI-H1703	0.254
NCI-H1563	0.636
NCI-H1650	0.52
NCI-H2009	0.891
SK-MES-1	0.349
SW 1573	0.457

Same assay, conditions: first compound 0.253 µM

Cell Line	relative viability
PC-14	0.763
NCI-H1666	0.507
EKVX	0.433
NCI-H1755	0.433
NCI-H2023	0.285
HCC-78	0.23
SK-LU-1	0.507
PC-3 [JPC-3]	0.651
LOU-NH91	0.542
NCI-H647	0.423
NCI-H23	0.568
EPLC-272H	0.322
NCI-H2126	0.483
ChaGo-K-1	0.668
HCC-44	0.528
NCI-H1734	0.522
NCI-H650	0.837

Cell Line	relative viability
NCI-H2228	0.306
NCI-H1944	0.34
Calu-6	0.984
COR-L23	0.922
EBC-1	0.412
A549	0.503
NCI-H1299	0.976
NCI-H520	0.287
IA-LM	0.425
NCI-H661	0.417
COR-L 105	0.406
NCI-H1703	0.258
NCI-H1563	0.641
NCI-H1650	0.671
NCI-H2009	0.962
SK-MES-1	0.376
SW 1573	0.539

Same assay, conditions: first compound 0.8 µM

Cell Line	relative viability
PC-14	0.725
NCI-H1666	0.485
EKVX	0.259
NCI-H1755	0.359
NCI-H2023	0.19
HCC-78	0.225
SK-LU-1	0.693
PC-3 [JPC-3]	0.766
LOU-NH91	0.459
NCI-H647	0.258
NCI-H23	0.483
EPLC-272H	0.3
NCI-H2126	0.465
ChaGo-K-1	0.645
HCC-44	0.815
NCI-H1734	0.418
NCI-H650	0.634
NCI-H2228	0.349

Cell Line	relative viability
NCI-H1944	0.323
Calu-6	0.865
COR-L23	0.824
EBC-1	0.351
A549	0.483
NCI-H1299	0.677
CAL-12T	0.475
NCI-H520	0.303
IA-LM	0.354
NCI-H661	0.34
COR-L 105	0.419
NCI-H1703	0.231
NCI-H1563	0.729
NCI-H1650	0.53
NCI-H2009	0.886
SK-MES-1	0.388
SW 1573	0.507

Same assay, conditions: first compound 2.53 µM

Cell Line	relative viability
PC-14	0.71
NCI-H1666	0.582
EKVX	0.407
NCI-H1755	0.441
NCI-H2023	0.265
HCC-78	0.223
SK-LU-1	0.651
PC-3 [JPC-3]	0.8
LOU-NH91	0.494
NCI-H647	0.366
NCI-H23	0.494
EPLC-272H	0.263
NCI-H2126	0.517
ChaGo-K-1	0.824
HCC-44	0.618
NCI-H1734	0.474
NCI-H650	0.905
LK-2	0.668
NCI-H2228	0.282
NCI-H1944	0.376
Calu-6	0.859
COR-L23	0.77
EBC-1	0.388
